# Patent publication US8518891B2 (priority 2006, dated 2013)
# pIC50: −log10 of the molar value. Several values for one entry are separate records, joined by “and”; a condition that tells them apart may be missing. Identical values can stand only once. Like-named read-outs stand apart in the source and are kept apart here. Numbered stars: 1 amine (or outer) side, 2 acyl side, 3 side chain; on linkers, the order of the positions; unused ones are H or OH. Square brackets hold non-standard residues; d marks the D form. Peptide text beside a SMILES is read from it. * marks the point of attachment. X5 = NP(=O)(OCc1c(F)c(F)c(N*)c(F)c1F)N(CCCl)CCCl; X4 = NP(=O)(OCc1c(F)cc(N*)cc1F)N(CCCl)CCCl; X2 = NP(=O)(OCc1ccc(N*)c(F)c1)N(CCCl)CCCl; X1 = NP(=O)(OCc1ccc(N*)cc1F)N(CCCl)CCCl; X3 = NP(=O)(OCc1ccc(N*)cc1)N(CCCl)CCCl; Glutaryl = O=C(CCCC(=O)[*:2])[*:1]; Hyp = O=C(O)[C@@H]1C[C@@H](O)CN1; Chg = N[C@H](C(=O)O)C1CCCCC1
# Key:
# [1] = test system: DU145 human prostate cancer cell line; experiment: In vitro antiproliferative activity assay in non-PSA-producing DU145 cells; assay type: cell-based; settings: 72 h drug exposure
# Excerpt: (§1) Furthermore, analogs 5b and 5c were synthesized with an electron-withdrawing fluorine atom at C2 (5b) and C3 (5c), respectively.
# [2] = Stability of peptide-linker-drug conjugates in the absence of PSA, disappearance monitored by HPLC; assay type: physicochemical; settings: for half-life: 0.1 M phosphate buffer, pH 7.4, 37° C., read-out: T1/2 -PSA (stability) (converted); for Stability relative to 5a in the absence of PSA: in words
# Description: (§2) First, the stability and PSA cleavage of glutaryl-Hyp-Ala-Ser-Chg-Gln-aminobenzyl phosphoramide mustard without substitutions on the benzyl ring (5a) was tested by monitoring the disappearance of the peptide-linker-drug conjugate using HPLC. […] Thus, peptide-linker-drug conjugate 5a is a substrate of PSA. The hydrolysis in the presence of PSA was 40 times faster than that in the absence of PSA. But, the instability in the absence of PSA was a concern. This instability can be addressed by introducing an electron-withdrawing fluorine atom on the aromatic ring as shown in Table 1. […] In the presence of PSA, they were more quickly hydrolyzed with t½of 43 and 57 min, respectively.
# [3] = test system: LNCaP human prostate cancer cell line; experiment: In vitro antiproliferative activity assay in PSA-producing LNCaP cells; assay type: cell-based; settings: 72 h drug exposure
# Excerpt: as §1
# [4] = biological target: PSA (Homo sapiens, UniProt P07288); experiment: PSA cleavage of peptide-linker-drug conjugates, disappearance monitored by HPLC; assay type: biochemical; settings: for half-life: PSA, in the presence of PSA; for Stability Ratio between T1/2 in the absence and presence of PSA: T1/2 (-PSA) / T1/2 (+PSA)
# Chain of PSA (P07288 25-261): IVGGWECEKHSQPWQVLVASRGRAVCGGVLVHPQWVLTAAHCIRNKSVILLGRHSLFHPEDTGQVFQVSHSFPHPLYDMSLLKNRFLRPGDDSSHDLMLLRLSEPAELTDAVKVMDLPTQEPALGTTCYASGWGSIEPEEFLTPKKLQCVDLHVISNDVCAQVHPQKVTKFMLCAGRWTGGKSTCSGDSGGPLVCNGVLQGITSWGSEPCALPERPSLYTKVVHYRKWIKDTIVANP
# Description: as §2
# [5] = read-out: T1/2 +PSA (PSA-catalyzed cleavage) (converted)
# [6] = read-out: t½ in the presence of PSA
Compound,pIC50 [1],half-life [2] [h],pIC50 [3],"half-life [4, 5] [h]",Stability Ratio between T1/2 in the absence and presence of PSA [4],Stability relative to 5a in the absence of PSA [2],"half-life [4, 6] [h]"
"C[C@H](NC(=O)[C@@H]1C[C@@H](O)CN1C(=O)CCCC(=O)O)C(=O)N[C@@H](CO)C(=O)N[C@H](C(=O)N[C@@H](CCC(N)=O)C(=O)Nc1c(F)c(F)c(COP(N)(=O)N(CCCl)CCCl)c(F)c1F)C1CCCCC1 (stereo partly drawn) [5e, glutaryl-Hyp-Ala-Ser-Chg-Gln-NH-2,3,5,6-tetrafluorobenzyl phosphoramide mustard] (Glutaryl-[Hyp]AS[Chg]Q-X5)",< 4.00,178,< 4.00,1.1,162,,
"C[C@H](NC(=O)[C@@H]1C[C@@H](O)CN1C(=O)CCCC(=O)O)C(=O)N[C@@H](CO)C(=O)N[C@H](C(=O)N[C@@H](CCC(N)=O)C(=O)Nc1cc(F)c(COP(N)(=O)N(CCCl)CCCl)c(F)c1)C1CCCCC1 (stereo partly drawn) [5d, glutaryl-Hyp-Ala-Ser-Chg-Gln-NH-2,6-difluorobenzyl phosphoramide mustard] (Glutaryl-[Hyp]AS[Chg]Q-X4)",< 4.00,131,4.70,1.75,75,,
"C[C@H](NC(=O)[C@@H]1C[C@@H](O)CN1C(=O)CCCC(=O)O)C(=O)N[C@@H](CO)C(=O)N[C@H](C(=O)N[C@@H](CCC(N)=O)C(=O)Nc1ccc(COP(N)(=O)N(CCCl)CCCl)c(F)c1)C1CCCCC1 (stereo partly drawn) [5b, glutaryl-Hyp-Ala-Ser-Chg-Gln-NH-2-fluorobenzyl phosphoramide mustard] (Glutaryl-[Hyp]AS[Chg]Q-X1)",< 4.00,105,5.28,0.93,113,much more stable than 5a,0.717
"C[C@H](NC(=O)[C@@H]1C[C@@H](O)CN1C(=O)CCCC(=O)O)C(=O)N[C@@H](CO)C(=O)N[C@H](C(=O)N[C@@H](CCC(N)=O)C(=O)Nc1ccc(COP(N)(=O)N(CCCl)CCCl)cc1)C1CCCCC1 (stereo partly drawn) [5a, glutaryl-Hyp-Ala-Ser-Chg-Gln-NH-benzyl phosphoramide mustard] (Glutaryl-[Hyp]AS[Chg]Q-X3)",~4.46 and 4.46,48,4.96,1.2,40,,
"C[C@H](NC(=O)[C@@H]1C[C@@H](O)CN1C(=O)CCCC(=O)O)C(=O)N[C@@H](CO)C(=O)N[C@H](C(=O)N[C@@H](CCC(N)=O)C(=O)Nc1ccc(COP(N)(=O)N(CCCl)CCCl)cc1F)C1CCCCC1 (stereo partly drawn) [5c, glutaryl-Hyp-Ala-Ser-Chg-Gln-NH-3-fluorobenzyl phosphoramide mustard] (Glutaryl-[Hyp]AS[Chg]Q-X2)",< 4.00,462,4.54,0.65,711,much more stable than 5a,0.95
